Literature values as cited in patent US6051685A, “Peptide derivatives” (Daiichi Pharmaceuticals Co., Ltd., priority 1994, dated 2000).

Columns and labels:
[1] = intraventricular administration
[2] = in vivo

SMILES: C[C@@H](NC(=O)[C@@H](N)Cc1ccc(O)cc1)C(=O)N[C@@H](Cc1ccccc1)C(=O)NCC(=O)N[C@@H](Cc1ccc(O)cc1)C(=O)N1CCC[C@H]1C(=O)N[C@@H](CO)C(N)=O [Delmorfine, Dermorphin]
- analgesic effect relative to morphine [1]: about 1,000 fold
- stability in living bodies [2]: relatively stable in living bodies
